How the values were obtained:
Human Full Length PARG = Human Full Length PARG (Homo sapiens (Human), UniProt Q86W56); assay: PARG in vitro enzyme assay (TR-FRET); assay type: biochemical; settings: read-out: PARG_EC50_ENZYME
In short: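 Full-length human PARG ([…]) incubated with ribosylated PARP substrate (4.5 nM) for 10 min at room temperature in Tris pH 7.4 buffer with EDTA, EGTA, DTT, KCl. Detection by TR-FRET using anti-6HIS XL665 (14 nM final) and streptavidin europium cryptate (0.75 nM final) after 60 min; Em665/Em620 ratio converted to percent inhibition.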

[1] = molecular target: Human High specific Activity PARP1 (Homo sapiens (Human), UniProt P09874); assay: PARP1 in vitro selectivity assay (histone PARylation, luminescence); assay type: biochemical; settings: read-out: PARP1 Biochem IC50
Procedure: PARP1 In vitro selectivity assays were conducted as a 10 ul reaction volume in a NUNC Maxisorp 384-well assay plate pre-coated in-house with Histones. 5 ul of Human High specific Activity PARP1 (Trevigen: 4668-100-01) was used at a final reaction concentration of 0.02 units/ml in 1×PARP Buffer (Trevigen: 4671-096-02) with 5 ul of 1×PARP cocktail, which is a mixture of 10×PARP Cocktail (Trevigen: 4671-096-03), 10× Activate DNA (Trevigen: 4671-096-06) and 20×PARP Buffer (as above). The reaction was incubated at room temperature for 60 minutes to allow histones on the coated plate to become PARylated. The wells were then washed with PBS/0.1% Triton X100. PARP1 activity was then detected by measuring the extent of PARylation. Firstly, 10 ul of Streptavidin-HRP (Trevigen: 4800-30-06), diluted 1 in 250 in 1×PARG Assay Buffer (Trevigen: 4680-096-02), was added to each well and incubated at room temperature for 60 minutes. Secondly, following another wash with PBS/0.1% Triton X100, Peroxy Glow Reagents A and B (Trevigen: 4675-096-01 and 4675-096-02) were mixed in equal quantities immediately before use and 100 ul was added to each well. Luminescence signal was then measured immediately.

Human Full Length ARH3 = Human Full Length ARH3 (Homo sapiens (Human), UniProt Q9NX46); assay: ARH3 in vitro selectivity assay (TR-FRET); assay type: biochemical; settings: read-out: ARH3 Biochem IC50
Procedure: ARH3 In vitro selectivity assays were conducted in a total volume of 15 ul in a standard 384 well format. 5 ul of Human Full Length ARH3 (Enzo Life Sciences: ALX-201-292), used at a final reaction concentration of 17.5 nM, was added to 5 ul of Ribosylated PARP substrate (also produced internally by Astra Zeneca) at final reaction concentration of 4.5 nM in assay buffer (50 mM Tris pH7.4, 0.1 mg/ml BSA, 3 mM EDTA, 0.4 mM EGTA, 1 mM DTT, 0.01% Tween 20, 50 mM KCl). The reaction was incubated at room temperature for 30 minutes and then 5 ul detection reagent was added. Detection Reagent consists of 42 nM MAb Anti-6HIS XL665 (CisBio: 61HISXLB) and 2.25 nM Streptavidin Europium Cryptate (CisBio: 610SAKLB), both at 3× working stock concentrations (final concentrations of 14 nM and 0.75 nM respectively), in a detection buffer of 50 mM Tris pH7.4, BSA at 0.1 mg/ml and KF at 100 mM. Following incubation at room temperature for 60 minutes in the dark, TR-FRET signal was measured at Ex 340 and Em 665 and Em 620. A ratio was calculated as Em665/EM620×104 for each well and used to calculate percent inhibition for test compounds.

PARG in HeLa cell line = PARG in HeLa cell line (Homo sapiens (Human), UniProt Q86W56); assay: PARG cell assay (nuclear PAR chains after MMS, immunofluorescence); assay type: cell-based; settings: HeLa cells, MMS 50 μg/mL; read-out: PARG Cell IC50 Geomean
In short: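 HeLa cells pre-dosed 1 h with compound (10-point dose response), then MMS 50 μg/mL for a further hour at 37 °C. Fixed cells immunostained with anti-PAR antibody plus Alexa Fluor 488 secondary and Hoechst. High-content imaging quantified nuclear PAR fluorescence intensity; inhibition maintains PAR chains.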

Chain of Human High specific Activity PARP1 (P09874 whole entry): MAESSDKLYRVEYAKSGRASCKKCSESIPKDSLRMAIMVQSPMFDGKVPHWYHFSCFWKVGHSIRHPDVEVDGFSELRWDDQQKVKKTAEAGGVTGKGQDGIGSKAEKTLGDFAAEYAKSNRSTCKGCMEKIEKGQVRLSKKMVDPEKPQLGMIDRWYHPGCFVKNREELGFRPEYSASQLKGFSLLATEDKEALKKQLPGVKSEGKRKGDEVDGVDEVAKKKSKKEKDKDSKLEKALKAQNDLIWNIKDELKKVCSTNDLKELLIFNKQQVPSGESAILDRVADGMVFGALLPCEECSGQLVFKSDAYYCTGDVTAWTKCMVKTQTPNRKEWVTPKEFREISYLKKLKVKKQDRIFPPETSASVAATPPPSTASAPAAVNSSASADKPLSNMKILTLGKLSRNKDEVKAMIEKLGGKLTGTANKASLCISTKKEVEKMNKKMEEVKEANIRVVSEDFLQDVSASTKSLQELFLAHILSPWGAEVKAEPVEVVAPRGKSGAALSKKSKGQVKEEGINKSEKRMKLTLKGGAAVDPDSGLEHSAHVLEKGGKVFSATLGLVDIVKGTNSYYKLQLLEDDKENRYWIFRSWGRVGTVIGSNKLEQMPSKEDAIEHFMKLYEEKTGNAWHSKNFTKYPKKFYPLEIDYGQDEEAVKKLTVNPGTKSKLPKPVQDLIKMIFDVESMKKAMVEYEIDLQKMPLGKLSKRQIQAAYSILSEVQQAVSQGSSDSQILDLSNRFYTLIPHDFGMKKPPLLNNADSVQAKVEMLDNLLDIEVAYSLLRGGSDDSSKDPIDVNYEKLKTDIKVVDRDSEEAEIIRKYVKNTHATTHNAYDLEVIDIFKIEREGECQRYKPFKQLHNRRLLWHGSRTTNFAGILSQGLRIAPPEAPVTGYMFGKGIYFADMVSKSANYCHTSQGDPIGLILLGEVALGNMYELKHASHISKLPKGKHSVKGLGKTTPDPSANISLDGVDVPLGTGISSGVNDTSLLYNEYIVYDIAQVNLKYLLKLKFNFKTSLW
Chain of PARG in HeLa cell line (Q86W56 whole entry): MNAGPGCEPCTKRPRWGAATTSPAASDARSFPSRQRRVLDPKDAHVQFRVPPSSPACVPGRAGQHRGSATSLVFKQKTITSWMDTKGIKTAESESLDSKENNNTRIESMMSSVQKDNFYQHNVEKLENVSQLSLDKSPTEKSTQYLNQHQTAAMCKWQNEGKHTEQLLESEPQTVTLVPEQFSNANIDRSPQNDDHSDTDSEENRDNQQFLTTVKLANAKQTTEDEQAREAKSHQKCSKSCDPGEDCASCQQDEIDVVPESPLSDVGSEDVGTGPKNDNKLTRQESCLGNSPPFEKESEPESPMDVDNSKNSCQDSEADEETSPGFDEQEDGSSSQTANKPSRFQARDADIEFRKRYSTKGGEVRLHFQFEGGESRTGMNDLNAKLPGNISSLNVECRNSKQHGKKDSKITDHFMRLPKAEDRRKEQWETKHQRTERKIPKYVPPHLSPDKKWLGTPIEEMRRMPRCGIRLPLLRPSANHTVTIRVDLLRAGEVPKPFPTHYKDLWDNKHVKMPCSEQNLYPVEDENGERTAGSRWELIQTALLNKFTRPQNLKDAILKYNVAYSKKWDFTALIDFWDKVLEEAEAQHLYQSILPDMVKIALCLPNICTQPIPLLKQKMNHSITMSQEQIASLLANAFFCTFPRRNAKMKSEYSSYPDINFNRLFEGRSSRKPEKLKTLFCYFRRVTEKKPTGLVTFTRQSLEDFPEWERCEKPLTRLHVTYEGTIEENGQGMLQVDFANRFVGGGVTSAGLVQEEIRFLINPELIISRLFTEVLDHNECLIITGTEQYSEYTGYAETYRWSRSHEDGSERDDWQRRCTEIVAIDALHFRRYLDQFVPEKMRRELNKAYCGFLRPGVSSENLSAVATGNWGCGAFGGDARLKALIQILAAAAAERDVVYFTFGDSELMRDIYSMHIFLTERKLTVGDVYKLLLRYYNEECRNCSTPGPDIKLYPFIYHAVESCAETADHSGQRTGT
Chain of Human Full Length PARG (Q86W56 whole entry): as above
Chain of Human Full Length ARH3 (Q9NX46 whole entry): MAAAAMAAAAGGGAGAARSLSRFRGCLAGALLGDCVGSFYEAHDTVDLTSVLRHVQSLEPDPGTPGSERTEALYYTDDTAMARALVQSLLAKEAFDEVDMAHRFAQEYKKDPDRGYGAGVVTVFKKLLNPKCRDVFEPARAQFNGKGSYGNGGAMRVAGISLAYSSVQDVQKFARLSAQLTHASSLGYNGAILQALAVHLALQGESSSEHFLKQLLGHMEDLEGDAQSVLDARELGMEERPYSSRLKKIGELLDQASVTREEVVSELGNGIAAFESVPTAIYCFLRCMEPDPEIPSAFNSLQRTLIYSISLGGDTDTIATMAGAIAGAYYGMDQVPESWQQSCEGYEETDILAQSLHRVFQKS

SMILES	EC50 (Human Full Length PARG) [µM]	IC50 [1] [µM]	IC50 (Human Full Length ARH3) [µM]	IC50 (PARG in HeLa cell line) [µM]
Cc1nc(C)c(Cn2c(=O)n(-c3nnc(C(F)F)s3)c3cc(S(=O)(=O)NC4(C)CC4)ccc32)s1 [Example 88]	0.053	> 150	> 100	0.038
CC1(NS(=O)(=O)c2ccc3c(c2)N(C(=O)CN2CCOC2=O)CC3)CC1 [Example 14, N-(1-Methylcyclopropyl)-1-[2-(2-oxooxazolidin-3-yl)acetyl]indoline-6-sulfonamide]	4.28	> 150	> 150	
CCn1c(=O)n(-c2nnc(C(F)F)o2)c2cc(S(=O)(=O)NC3(CF)CC3)c(F)cc21 [Example 200, 3-[5-(Difluoromethyl)-1,3,4-oxadiazol-2-yl]-1-ethyl-6-fluoro-N-[1-(fluoromethyl)cyclopropyl]-2-oxo-benzimidazole-5-sulfonamide]	0.112		> 150	0.126
Cc1cc(Cc2nc3ccc(S(=O)(=O)NC4(C)CC4)cc3n2-c2nnc(C)s2)on1 [Example 118]	0.671	> 150	> 150	
Cc1nnc(-n2nc(Cc3ccc(F)cc3)c3ccc(S(=O)(=O)NC4(C)CC4)cc32)s1 [Example 146, 3-[(4-Fluorophenyl)methyl]-N-(1-methylcyclopropyl)-1-(5-methyl-1,3,4-thiadiazol-2-yl)indazole-6-sulfonamide]	1.19	> 150	> 16.7	
C#CCn1c(=O)n(-c2nnc(C(F)F)s2)c2cc(S(=O)(=O)NC3(CF)CC3)c(F)cc21 [Example 213, 3-[5-(Difluoromethyl)-1,3,4-thiadiazol-2-yl]-6-fluoro-N-[1-(fluoromethyl)cyclopropyl]-2-oxo-1-prop-2-ynyl-benzimidazole-5-sulfonamide]	0.029		> 150	0.016
Cc1nnc(-n2cnc3ccc(S(=O)(=O)NC4(C)CC4)cc32)s1 [Example 119]	1.03	> 150	> 150	
Cn1c(=O)n(-c2nnc(C(F)F)s2)c2cc(S(=O)(=O)NC3(C)CC3)ccc21 [Example 79]	0.652	> 150	> 100	
CC1(NS(=O)(=O)c2cc3c(cc2F)n(CCF)c(=O)n3-c2nnc(C(F)F)o2)CC1 [Example 211, 3-[5-(Difluoromethyl)-1,3,4-oxadiazol-2-yl]-6-fluoro-1-(2-fluoroethyl)-N-(1-methylcyclopropyl)-2-oxo-benzimidazole-5-sulfonamide]	0.401		> 150	0.135
O=c1n(CCF)c2cc(F)c(S(=O)(=O)NC3(CF)CC3)cc2n1-c1nnc(C(F)F)o1 [Example 212, 3-[5-(Difluoromethyl)-1,3,4-oxadiazol-2-yl]-6-fluoro-1-(2-fluoroethyl)-N-[1-(fluoromethyl)cyclopropyl]-2-oxo-benzimidazole-5-sulfonamide]	0.129		> 150	0.11
COCCn1c(=O)n(-c2nnc(C(F)F)s2)c2cc(S(=O)(=O)NC3(CF)CC3)ccc21 [Example 163, 3-[5-(Difluoromethyl)-1,3,4-thiadiazol-2-yl]-N-[1-(fluoromethyl)cyclopropyl]-1-(2-methoxyethyl)-2-oxo-benzimidazole-5-sulfonamide]	0.09			0.104
COc1nsc(-n2c(=O)n(Cc3sc(C)nc3C)c3ccc(S(=O)(=O)NC4(C)CC4)cc32)n1 [Example 105]	0.269			0.246
Cc1nnc(-n2c(=O)n(CC3CCCCN3C)c3ccc(S(=O)(=O)NC4(C)CC4)cc32)s1 (stereo not drawn) [Example 143]	0.441			0.343
COCCn1c(=O)n(-c2nnc(C)s2)c2cc(S(=O)(=O)NC3(C)CC3)ccc21 [Example 147]	0.461			0.437
Cn1c(=O)n(-c2nnc(C(F)F)o2)c2cc(S(=O)(=O)NC3(C)CC3)c(F)cc21 [Example 209, 3-[5-(Difluoromethyl)-1,3,4-oxadiazol-2-yl]-6-fluoro-1-methyl-N-(1-methylcyclopropyl)-2-oxo-benzimidazole-5-sulfonamide]	0.93			0.219
CCOC(=O)n1c(=O)n(Cc2sc(C)nc2C)c2ccc(S(=O)(=O)NC3(C)CC3)cc21 [Example 112]	0.14			0.85
CN(C)CCCn1c(=O)n(-c2nnc(C(F)F)s2)c2cc(S(=O)(=O)NC3(CF)CC3)ccc21 [Example 170, 3-[5-(Difluoromethyl)-1,3,4-thiadiazol-2-yl]-1-[3-(dimethylamino)propyl]-N-[1-(fluoromethyl)cyclopropyl]-2-oxo-benzimidazole-5-sulfonamide]	0.092			0.089
COCCCn1c(=O)n(-c2nnc(C)s2)c2cc(S(=O)(=O)NC3(CF)CC3)ccc21 [Example 187, N-[1-(Fluoromethyl)cyclopropyl]-1-(3-methoxypropyl)-3-(5-methyl-1,3,4-thiadiazol-2-yl)-2-oxo-benzimidazole-5-sulfonamide]	0.427			0.201
O=c1n(CCF)c2cc(F)c(S(=O)(=O)NC3(CF)CC3)cc2n1-c1nnc(C(F)F)s1 [Example 216, 3-[5-(Difluoromethyl)-1,3,4-thiadiazol-2-yl]-6-fluoro-1-(2-fluoroethyl)-N-[1-(fluoromethyl)cyclopropyl]-2-oxo-benzimidazole-5-sulfonamide]	0.051		> 150	0.033
CNC(=O)c1noc(Cn2c(=O)n(-c3nnc(C)o3)c3cc(S(=O)(=O)NC4(C)CC4)ccc32)n1 [Example 117]	0.275			24.7
Cc1ccc(-n2c(=O)n(C)c3cc(F)c(S(=O)(=O)NC4(C)CC4)cc32)nn1 [Example 205, 6-Fluoro-1-methyl-N-(1-methylcyclopropyl)-3-(6-methylpyridazin-3-yl)-2-oxo-benzimidazole-5-sulfonamide]	6.69			5.76
Cc1nnc(-n2c(=O)[nH]c3ccc(S(=O)(=O)NC4(C#N)CC4)cc32)s1 [Example 157, N-(1-Cyanocyclopropyl)-3-(5-methyl-1,3,4-thiadiazol-2-yl)-2-oxo-1H-benzimidazole-5-sulfonamide]	1.17			3.5
Cn1c(=O)n(-c2nnc(C(F)F)s2)c2cc(S(=O)(=O)NC3(CF)CC3)ccc21 [Example 181, 3-[5-(Difluoromethyl)-1,3,4-thiadiazol-2-yl]-N-[1-(fluoromethyl)cyclopropyl]-1-methyl-2-oxo-benzimidazole-5-sulfonamide]	0.291			0.109
COCCn1c(=O)n(-c2nnc(C)s2)c2cc(S(=O)(=O)NC3(C#N)CC3)ccc21 [Example 161, N-(1-Cyanocyclopropyl)-1-(2-methoxyethyl)-3-(5-methyl-1,3,4-thiadiazol-2-yl)-2-oxo-benzimidazole-5-sulfonamide]	0.616			0.491
Cc1ccc(-n2c(=O)n(C)c3cc(F)c(S(=O)(=O)NC4(CF)CC4)cc32)nn1 [Example 204, 6-Fluoro-N-[1-(fluoromethyl)cyclopropyl]-1-methyl-3-(6-methylpyridazin-3-yl)-2-oxo-benzimidazole-5-sulfonamide]	6.19			4.23
Cc1nnc(-n2c(=O)n(CCN3CCOCC3)c3ccc(S(=O)(=O)NC4(C)CC4)cc32)s1 [Example 152]	0.275			0.194
COCCCn1c(=O)n(-c2nnc(C)s2)c2cc(S(=O)(=O)NC3(C)CC3)ccc21 [Example 148]	0.373			0.238

Reference: patent publication US10508086B2 (CANCER RESEARCH TECHNOLOGY LIMITED, priority 2014, dated 2019)
